Results: patent US7629156B2, “Ethanol production in fermentation of mixed sugars containing xylose” (E.I. du Pont de Nemours and Company, priority 2006, dated 2009)

Columns and labels:
Type in all cases: cell-based, Zymomonas mobilis
ZW658 strain [1] = test: Tube fermentation of ZW658 on glucose and xylose with various sugar alcohols (Example 14); settings: for ethanol production / xylose utilization: 10 mM sugar alcohol vs control; for OD600: after 48 hours, 10 mM sugar alcohol, 92 g/L glucose, 82 g/L xylose
Protocol: (§1) Approximately 1 ml of well mixed sample was obtained from flask or fermentor. First the sample absorbance was measured directly with a spectrophotometer (Amersham Biosciences Ultrospec 3300pro, GE Healthcare, Piscataway, N.J., USA). If the reading was lower than 0.6 unit, no dilution was needed. If the reading was higher than 0.6 unit, the sample was diluted with culture medium until the actual reading was in the range of 0.1 to 0.6 unit. The original OD was calculated from the dilution ratio and the actual reading.
(§2) The analysis of sugars, acetate, ethanol, and other by-products was done with an Agilent 1100 series HPLC and Agilent ChemStation software for LC 3D. The column was BioRad Aminex HPX-87H(HPLC Organic Analysis Column 125-0140) with BioRad Micro-Guard Cartridge Cation-H (125-0129). The operating conditions were:
In six sterilized 50 ml screw-cap centrifuge tubes (Cat. No. 21008-178, VWR International, USA), 200 μl of ZW658 strain glycerol stock at OD600 of approximately 10 was inoculated into each flask with 25 ml of aqueous solution containing 92 g/L glucose, 82 g/L xylose, 10 g/L yeast extract (YE), 2 g/L KH2PO4, 1 g/L MgSO4.7H2O, and 10 mM of D-sorbitol, L-sorbitol, D-threitol, myo-inositol, or xylitol. The control had no addition of sugar alcohol. Initial pH was adjusted to 5.5 with 4 N H3PO4 solution. Fermentation was conducted at 33° C. and pH was not controlled. Samples were taken periodically between 0 and 48 hr. Samples were filtered through 0.22 micron filters, and the filtrates were analyzed by HPLC as described in General Methods for glucose, xylose, xylitol, and ethanol. Samples were diluted with medium (as described in General Methods) and the OD600 was measured to monitor cell growth. Results of growth and glucose utilization are given in FIGS. 22A and 22B, respectively. Results of xylose utilization and ethanol production are given in FIGS. 23A and 23B, respectively. Cultures with D-sorbitol or L-sorbitol grew faster and better than the control. After 48 hours, the OD600 were 6.2 and 5.2, respectively, for cultures supplemented with D-sorbitol or L-sorbitol; while the OD600 were less than 1 for other cultures. […] The presence of D-sorbitol or L-sorbitol allowed more xylose utilization, without production of xylitol.

ZW658 strain [2] = test: Tube fermentation of ZW658 on glucose and xylose with various sugar alcohols (Example 13); settings: for ethanol production / xylose utilization: sugar alcohol in the medium vs control
Protocol: as §1, §2
In eight sterilized 50 ml screw-cap centrifuge tubes (Cat. No. 21008-178, VWR International, USA), 200 μl of ZW658 strain glycerol stock at OD600 of approximately 10 was inoculated into each flask with 25 ml of aqueous solution containing 92 g/L glucose, 82 g/L xylose, 10 g/L yeast extract (YE), 2 g/L KH2PO4, 1 g/L MgSO4.7H2O, and either 10 mM of sorbitol, arabitol, adonitol (also called ribitol), or galactitol; or 50 mM of arabitol, adonitol, or galactitol. The control had no sugar alcohol added. Initial pH was adjusted to 5.5 with 4 N H3PO4 solution. Fermentation was conducted at 33° C. and pH was not controlled. Samples were taken periodically between 0 and 40 hr. Samples were filtered through 0.22 micron filters, and the filtrates were analyzed by HPLC as described in General Methods for glucose, xylose, xylitol, and ethanol. Samples were diluted with medium (as described in General Methods) and the OD600 was measured to monitor cell growth. Results of growth and glucose utilization are given in FIGS. 20A and 20B, respectively. Results of xylose utilization and ethanol production are given in FIGS. 21A and 21B, respectively. Cultures with sorbitol or galactitol grew much faster and better than the control. Cultures with adonitol also grew better. After 40 hours, the OD600 were 7 to 8, for cultures supplemented with sorbitol or galactitol; the OD600 were about 5, for cultures supplemented with adonitol; while the OD600 were less than 1 for other cultures. […] The presence of sorbitol, galactitol, or adonitol allowed more xylose utilization, without production of xylitol.

ZW658 strain [3] = test: Flask fermentation of ZW658 on glucose and xylose with various polyols; settings: 10 mM polyol; for ethanol production / xylose utilization: mixed sugars; for OD600: after 32 hours, total sugar about 160 g/L, 33° C.
Protocol: as §1, §2
(§3) Glycerol stock of seed frozen at −80° C. was thawed, then inoculated into sterile culture tubes with mixture of 60 g/L glucose, 20 g/L xylose, 10 g/L yeast extract (YE), 10 g/L KH2PO4, 2 g/L (NH4)2SO4, and 1 g/L MgSO4. Initial pH was adjusted to 5.5 with 4 N KOH. This revival culture was grown statically overnight at 37° C. It was transferred into shake flasks with 75 g/L glucose, 25 g/L xylose, 10 g/L yeast extract (YE), 10 g/L KH2PO4, 2 g/L (NH4)2SO4, and 1 g/L MgSO4. Initial pH was adjusted to 5.5 with 4 N KOH. Growth was monitored by measuring OD600. When the OD reached approximately 5, a certain volume of the seed was withdrawn into a sterile syringe for inoculation.
In five sterilized 125 ml Erlenmeyer culture flasks (Cat. No. 30180-036, VWR International, USA), 10 ml of ZW658 strain seed culture at OD600 of approximately 5 was inoculated into each flask with 100 ml of aqueous solution containing 100 g/L glucose, 80 g/L xylose, 10 g/L yeast extract (YE), 2 g/L KH2PO4, 1 g/L MgSO4.7H2O, and 4 g/L KHCO3, and 10 mM of one of the following polyols: erythritol, sorbitol, mannitol, maltitol, or lactitol. After inoculation, the total sugar concentration was about 160 g/L due to dilution by the seed culture. Initial pH was adjusted to 5.5 with 4 N H3PO4 solution. Mixing speed was set at 150 rpm. Fermentation was conducted at 33° C. and pH was not controlled. Samples were taken periodically. Samples were filtered through 0.22 micron filters, and the filtrates were analyzed by HPLC as described in General Methods for compounds including glucose, xylose, ethanol, xylitol, and acetic acid. Samples were diluted with medium (as described in General Methods) and the OD600 was measured to monitor cell growth. […] Cultures with sorbitol or mannitol grew faster and better. After 32 hours, the OD600 were 13.94 and 13.92, respectively, for cultures supplemented with sorbitol or mannitol; meanwhile, the OD600 were 9.48, 9.02, and 9.24, respectively, for cultures supplemented with erythritol, maltitol, or lactitol. […] The presence of sorbitol or mannitol allowed more xylose utilization, without production of xylitol.

ZW658 strain [4] = test: Flask fermentation of ZW658 on glucose and xylose with acetate and various polyols; settings: 10 mM polyol, 3 g/L acetate; for OD600: after 32 hours, total sugar about 160 g/L
Protocol: as §1, §2, §3
In five sterilized 125 ml Erlenmeyer culture flasks (Cat. No. 30180-036, VWR International, USA), 10 ml of ZW658 strain seed culture at OD600 of approximately 5 was inoculated into each flask with 100 ml of aqueous solution containing 100 g/L glucose, 80 g/L xylose, 3 g/L acetate, 10 g/L yeast extract (YE), 2 g/L KH2PO4, 1 g/L MgSO4.7H2O, and 4 g/L KHCO3, and 10 mM of the following polyols: erythritol, sorbitol, mannitol, maltitol, or lactitol; or 5 mM sorbitol plus 5 mM maltitol, or 5 mM sorbitol plus 5 mM lactitol. After inoculation, the total sugar concentration was about 160 g/L due to dilution by the seed culture. Initial pH was adjusted to 5.5 with 4 N H3PO4 solution. Mixing speed was set at 150 rpm. Fermentation was conducted at 33° C. and pH was not controlled. Samples were taken periodically. Samples were filtered through 0.22 micron filters, and the filtrates were analyzed by HPLC as described in General Methods for compounds including glucose, xylose, ethanol, and acetate. Samples were diluted with medium (as described in General Methods) and the OD600 was measured to monitor cell growth.

ZW658 strain [5] = test: 1-liter fermentor, ZW658 on high concentration glucose and xylose with sorbitol or glutamate
Protocol: as §1, §2, §3
In a sterilized 1-liter fermentor (BIOSTAT® B-DCU system, Sartorius BBI System Inc., Bethlehem, Pa., USA), 50 ml of ZW658 strain seed culture at Optical Density of approximately 5 (measured at 600 nm) was inoculated into 450 ml of aqueous solution containing sugars and medium. The final mixed broth contained 100 g/L glucose, 85.1 g/L xylose, 10 g/L yeast extract (YE), 2 g/L KH2PO4, and 10 mM sorbitol. pH was adjusted to 5.5 with 4 N KOH solution. Mixing speed was set at 150 rpm. Fermentation was conducted at 33° C. and pH 5.5. Samples were taken periodically. Samples were filtered through 0.22 micron filters, and the filtrates were analyzed by HPLC as described in General Methods for compounds including glucose, xylose, ethanol, and acetate. Samples were also diluted with medium (as described in General Methods) and the OD600 was measured to monitor cell growth. […] The by-product xylitol concentration was 0.67 g/L at 29 hr, and increased to 0.95 g/L at 64 hr.
In a sterilized 1-liter fermentor (BIOSTAT® B-DCU system, Sartorius BBI System Inc., Bethlehem, Pa., USA), 50 ml of ZW658 strain seed culture at OD600 of approximately 5 was inoculated into 450 ml of aqueous solution containing sugars and medium. The final mixed broth contained 98.0 g/L glucose, 81.2 g/L xylose, 10 g/L yeast extract (YE), 2 g/L KH2PO4, and 10 mM potassium glutamate. pH was adjusted to 5.5 with 4 N KOH solution. Mixing speed was set at 150 rpm. Fermentation was conducted at 33° C. and pH 5.5. Samples were taken periodically. Samples were filtered through 0.22 micron filters, and the filtrates were analyzed by HPLC as described in General Methods for compounds including glucose, xylose, xylitol, ethanol, and acetic acid. Samples were also diluted with medium (as described in General Methods) and the OD600 was measured to monitor cell growth. […] However, xylose was not well-utilized, cell growth and ethanol production were reduced as compared to that in the presence of sorbitol (Example 4), and xylitol production increased.

[6] = after 63.75 hours, 10 mM potassium glutamate
[7] = in the presence of glutamate, mixed sugars

## OC[C@@H](O)[C@@H](O)[C@H](O)[C@@H](O)CO [D-sorbitol]
ZW658 strain [1]
  ethanol production: ethanol production was also better
  xylose utilization: More xylose was utilized
  OD600: 6.2

## OC[C@@H](O)[C@H](O)[C@@H](O)[C@@H](O)CO [L-sorbitol]
ZW658 strain [1]
  ethanol production: ethanol production was also better
  xylose utilization: More xylose was utilized
  OD600: 5.2

## OC[C@@H](O)[C@@H](O)[C@@H](O)CO [adonitol]
ZW658 strain [2]; after 40 hours, 10 mM sorbitol, 10 mM or 50 mM other sugar alcohols, 92 g/L glucose, 82 g/L xylose
  OD600: about 5
ZW658 strain [2]
  ethanol production: ethanol production was also better
  xylose utilization: More xylose was utilized

## OC[C@@H](O)[C@@H](O)CO [erythritol]
ZW658 strain [3]
  ethanol production: do not increase ethanol production
  xylose utilization: nor do they increase xylose utilization
  OD600: 9.48
ZW658 strain [4]
  OD600: 5.20

## OC[C@@H](O)[C@H](O)[C@H](O)[C@@H](O)CO [galactitol]
ZW658 strain [2]
  ethanol production: ethanol production was also better
  xylose utilization: More xylose was utilized

## N[C@@H](CCC(=O)[O-])C(=O)[O-].[K+].[K+] [glutamate, potassium glutamate, reference compound]
ZW658 strain [5]; 10 mM potassium glutamate
  effect on lag period: reduced the lag period
  time at which glucose concentration reached 0: 24 h
ZW658 strain [5]; [6]
  OD600 cells grew to: 6.9
  by-product xylitol concentration: 4.38 g/L
  ethanol concentration: 72.3 g/L
ZW658 strain [5]; after 63.75 hours, 98.0 g/L glucose, 81.2 g/L xylose, 10 mM potassium glutamate
  xylose concentration: 21.2 g/L
ZW658 strain [5]; after 63.75 hours, 98.0 g/L glucose, 81.2 g/L xylose, 10 mM potassium glutamate, 33° C., pH 5.5
  glucose concentration: 0 g/L
ZW658 strain [5]; [7]
  effect on ethanol production: ethanol production is not improved
  effect on xylitol production: xylitol production is not reduced
  effect on xylose utilization: xylose utilization is not enhanced

## OC[C@@H](O)[C@@H](O[C@@H]1O[C@H](CO)[C@H](O)[C@H](O)[C@H]1O)[C@H](O)[C@@H](O)CO [lactitol]
ZW658 strain [3]
  ethanol production: do not increase ethanol production
  xylose utilization: nor do they increase xylose utilization
  OD600: 9.24
ZW658 strain [4]
  OD600: 5.30

## OC[C@@H](O)[C@@H](O[C@H]1O[C@H](CO)[C@@H](O)[C@H](O)[C@H]1O)[C@H](O)[C@@H](O)CO [maltitol]
ZW658 strain [3]
  ethanol production: do not increase ethanol production
  xylose utilization: nor do they increase xylose utilization
  OD600: 9.02
ZW658 strain [4]
  OD600: 5.20

## OC[C@@H](O)[C@@H](O)[C@H](O)[C@H](O)CO [mannitol]
ZW658 strain [3]
  ethanol production: ethanol production was also better
  xylose utilization: More xylose was utilized
  OD600: 13.92
ZW658 strain [4]
  ethanol production: ethanol production was also better
  xylose utilization: More xylose was utilized
  OD600: 7.40
